Results from PubChem BioAssay (NCI).
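How tested: cells in 96-well plates exposed to compound for 48 hours at five concentrations. Abbreviation: GI50, concentration required for 50% inhibition of growth. Definition used: TGI = concentration required for complete inhibition of growth.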

How the values were obtained:
Experiment in all cases: inhibition of tumour cell growth, NCI panel, 48 h
[1] = system: ACHN renal
[2] = system: HL-60(TB) leukemia
[3] = system: HT29 colon
[4] = system: LOX IMVI melanoma
[5] = system: MOLT-4 leukemia
[6] = system: NCI-H522 lung
[7] = system: PC-3 prostate
[8] = system: U251 CNS

Structure (SMILES) | TGI [1] [µM] | TGI [2] [µM] | TGI [3] [µM] | TGI [4] [µM] | TGI [5] [µM] | TGI [6] [µM] | TGI [7] [µM] | TGI [8] [µM] | GI50 [1] [µM] | GI50 [2] [µM] | GI50 [3] [µM] | GI50 [4] [µM] | GI50 [5] [µM] | GI50 [6] [µM] | GI50 [7] [µM] | GI50 [8] [µM]
COc1cc(/C=C/c2ccccn2)cc(OC)c1OC | > 10 | > 10 | > 10 | > 10 | > 10 | > 10 | > 10 | > 10 |  |  |  |  |  |  |  | 
O=c1[nH]c(SCc2ccccc2[N+](=O)[O-])nc2nc[nH]c12 | > 100 | > 100 | > 100 | > 100 | > 100 | > 100 | > 100 | > 100 |  |  |  |  |  |  |  | 
Cn1cc(C2=C(c3c(S(C)=O)n(C)c4ccccc34)C(=O)NC2=O)c2ccccc21 (stereo not drawn) | > 25 | 17.7 | > 25 | > 25 | > 25 | > 23.4 | > 25 | > 25 | 8.83 | 5.39 | 7.51 | 13.7 | 9.4 | 4.47 | 8.19 | 8.64
Cc1cc(C#Cc2ccccc2)ccc1-n1c(/C=C/c2cc(O)ccc2O)nc2ccccc2c1=O | 2.75 |  | 4.19 | 2.65 | 3.97 | 2.56 | 8.34 | 2.77 | 1.44 |  | 1.97 | 1.37 | 1.14 | 1.29 | 2.19 | 1.45
Fc1ccc(C2C3CCOc4c(ccc5ccccc45)C3=NN2c2ccccc2)cc1 (stereo not drawn) | > 100 | > 100 | > 100 | > 100 | > 100 | > 100 | > 100 | > 100 | 88.6 | > 100 | > 100 | 88.4 | 30.7 | > 100 | > 54.9 | 56.1
OCc1ccc(N(Cc2ccc(F)cc2)CC2CCC2)cc1Cl | 26 | 28.9 | 26.2 | 29.2 | 33.4 | 27.1 | 24.8 | 19.6 | 13 | 12.1 | 12.9 | 14.7 | 13.7 | 12.7 | 11.8 | 5.43
CC/C(=N/N=C(N)N)c1ccc(NC(=O)Nc2ccc(/C(CC)=N/N=C(N)N)cc2)cc1 | 24.5 | 21.8 | 28.1 | 35 | 6.51 | 7.03 | 33.7 | 12.2 | 5.78 | 2.85 | 7.12 | 9.41 | 2.07 | 1.74 | 6.27 | 2.64
COc1ccc(/C=C2/CN(CCC#N)C/C(=C\c3ccc(OC)cc3)C2=O)cc1 | 4.48 |  | 3.9 | 4.03 | > 100 | 4.32 | > 100 | 5.1 | 2.06 |  | 1.9 | 1.7 | 3.69 | 1.83 | 2.67 | 2.1
